Measurements taken from paper PMC12735834, “Novel Trinorditerpene from Dysoxylum parasiticum (Osbeck) Kosterm: Leaf Extract with Cytotoxic, Antioxidant and α-Glucosidase Inhibitory Activities” (Molecules, 2025).

Target: α-glucosidase
Experiment: colorimetric p-NPG hydrolysis assay, […] nm, triplicate
Assay type: biochemical, Saccharomyces cerevisiae

## 12-(3-carboxyfuran-2-yl)-trinorlabda-5,9-dien-15-oic acid [parasitic acid]
  IC50: 36.29 ± 1.06 µg/mL
